Experimental data taken from PMC8415315, “Maternal Serotonin Reuptake Inhibitor Antidepressants Have Acute Effects on Fetal Heart Rate Variability in Late Gestation” (Frontiers in Psychiatry, 2021).
Like-named read-outs stand apart in the source and are kept apart here.

Key:
[1] = Non-compartmental pharmacokinetic analysis of maternal SRI plasma levels; format: in vivo, human; settings: for AUC(0-t) / Cmax: female, human, 36-weeks' gestation, daily oral dose; for AUC(0-t) / Cmax / Tpeak: mean ± SE; for AUC(0-t): area under the curve from T0 (baseline) to last measured plasma concentration (T4), SRI-treated women; for Cmax: maximum (peak) maternal plasma drug concentration; for Tpeak: time from baseline (T0) to reach Cmax, oral dose about 1.8 h after T0
Experimental: Maternal SRI plasma levels were further characterized by performing a non-compartmental pharmacokinetic analysis, yielding estimates of maximum plasma drug concentration (Cmax), time-to-peak (Tpeak) and area under the curve (AUClast). Pharmacokinetic variables were calculated using the PKNCA R package ([73]).

[2] = Maternal plasma drug concentrations by HPLC tandem mass spectrometry at 36-weeks' gestation; settings: for Δ T3-T0, change in dose-adjusted plasma concentration: mean ± SE, from baseline (T0) to post-dose 3 (T3); for Pharmacokinetic phase at the post-dose fetal assessment: reached Cmax
Description: To investigate chronic and acute SRI effects on the fetus, SRI-treated women were asked to withhold their typical morning oral dose until ~10h00, resulting in the AM/baseline and PM fetal assessments corresponding to pre-dose and post-dose periods, respectively. To characterize concurrent SRI pharmacokinetics across the study protocol, plasma drug concentrations were quantified at baseline (pre-dose) and four time-points post-dose; details on the drug level assay and pharmacologic variables are described below. Timing for each component of this study considered the need for a sufficient antidepressant baseline (pharmacologic trough), half-life, and time-to-peak plasma levels, weighted against length of study in effort to minimize maternal discomfort/inconvenience and potential effects of diurnal variations in the fetal variables obtained.
Changes in maternal plasma drug concentration between fetal assessments were determined by analyzing blood samples from SRI-treated mothers pre-dose (T0, baseline levels; ~08h00) and at four time-points post-dose: T1 (~10h30), T2 (~12h30), T3 (~13h30), and T4 (~14h30). Serum was separated by centrifugation at 3,000 × g for 10 min, transferred to polypropylene tubes and stored at −70°C until analysis. High performance liquid chromatography tandem mass spectrometry, performed offsite (CANTEST Ltd.; Burnaby, Canada), was used to determine levels of fluoxetine, norfluoxetine, paroxetine, sertraline, citalopram, escitalopram and venlafaxine.
Plasma drug concentrations were adjusted for maternal oral dose (ng/ml·mg). To quantify the relative change in maternal SRI level between the pre- and post-dose fetal assessments, the difference in dose-adjusted plasma drug concentration between T0 and T3 was determined. Plasma concentrations for metabolites were not reported as they reflect parent drugs.

[3] = set-up: method as in PMID 26765210; settings: rodents; 2-h after maternal drug administration; ref [83]; cited from earlier work
[4] = known value the observation is said to be consistent with; no reference given; cited from earlier work
fetal HR = settings: acute exposure; ref [49]; cited from earlier work

Row | AUC(0-t) [1] | Cmax [1] | Tpeak [1] | Δ T3-T0, change in dose-adjusted plasma concentration [2] | Pharmacokinetic phase at the post-dose fetal assessment [2] | AUClast, total observed maternal drug exposure during study protocol (rank among antidepressants) [1] | Pharmacokinetic phase by the last blood collection (T4) ([2]; listed as fluoxetine) | SMILES | Fetal citalopram exposure relative to the mother [3] | Tpeak [4] | Pharmacokinetic phase by the last blood collection (T4) [2] | Effect on fetal HR variability (fetal HR)
1 | 906 ± 271 ng·h/mL | 274 ± 92 ng/mL | 4.9 ± 0.14 h | 3.2 ± 1.0 ng/ml·mg | early elimination phase |  |  | CN(C)CCCC1(c2ccc(F)cc2)OCc2cc(C#N)ccc21 (stereo not shown) [Citalopram] | exceed that of the mother |  |  | 
2 | 3220 ± 1920 ng·h/mL | 613 ± 342 ng/mL | 5.8 ± 1.0 h | 4.3 ± 2.5 ng/ml·mg |  | highest | still in the absorption phase | CNCCC(Oc1ccc(C(F)(F)F)cc1)c1ccccc1 (stereo not shown) [Fluoxetine] |  | 6 to 8 h | absorption phase | 
3 | 125 ± 66 ng·h/mL | 24 ± 5.2 ng/mL | 4.6 ± 0.04 h | 0.13 ± 0.21 ng/ml·mg | early elimination phase | lowest |  | Fc1ccc([C@@H]2CCNC[C@H]2COc2ccc3c(c2)OCO3)cc1 [Paroxetine] |  |  |  | 
4 | 728 ± 256 ng·h/mL | 197 ± 105 ng/mL | 5.3 ± 0.18 h | 0.71 ± 0.53 ng/ml·mg | early elimination phase |  |  | CN[C@H]1CC[C@@H](c2ccc(Cl)c(Cl)c2)c2ccccc21 [Sertraline] |  |  |  | 
5 |  |  |  |  |  |  |  | CN1CCC[C@H]1c1cccnc1 [nicotine] |  |  |  | decreased

Row | SMILES | AUC(0-t) [1] | Cmax [1] | Tpeak [1] | Δ T3-T0, change in dose-adjusted plasma concentration [2] | Pharmacokinetic phase at the post-dose fetal assessment [2] | AUClast, total observed maternal drug exposure during study protocol (rank among antidepressants) [1] | Pharmacokinetic phase by the last blood collection (T4) ([2]; listed as fluoxetine) | Fetal citalopram exposure relative to the mother [3] | Tpeak [4] | Pharmacokinetic phase by the last blood collection (T4) [2] | Effect on fetal HR variability (fetal HR)
6 | COc1ccc(C(CN(C)C)C2(O)CCCCC2)cc1 (stereo not shown) [Venlafaxine] | 621 ± 314 ng·h/mL | 163 ± 74 ng/mL | 5.7 ± 0.30 h | 0.43 ± 0.13 ng/ml·mg |  |  |  |  |  | still in the absorption phase | 
